US7202261B2, “Calcilytic compounds” (NPS Pharmaceuticals, Inc., priority 1996, dated 2007)
Structures can show the parent of a compound that is named as a salt. Where two headings read alike, the source gives them in different places.

Biological target: T1, human calcium receptor (Homo sapiens, UniProt P41180)
T1 construct: expressed in transfected cells
T1 sequence (P41180 20-1078): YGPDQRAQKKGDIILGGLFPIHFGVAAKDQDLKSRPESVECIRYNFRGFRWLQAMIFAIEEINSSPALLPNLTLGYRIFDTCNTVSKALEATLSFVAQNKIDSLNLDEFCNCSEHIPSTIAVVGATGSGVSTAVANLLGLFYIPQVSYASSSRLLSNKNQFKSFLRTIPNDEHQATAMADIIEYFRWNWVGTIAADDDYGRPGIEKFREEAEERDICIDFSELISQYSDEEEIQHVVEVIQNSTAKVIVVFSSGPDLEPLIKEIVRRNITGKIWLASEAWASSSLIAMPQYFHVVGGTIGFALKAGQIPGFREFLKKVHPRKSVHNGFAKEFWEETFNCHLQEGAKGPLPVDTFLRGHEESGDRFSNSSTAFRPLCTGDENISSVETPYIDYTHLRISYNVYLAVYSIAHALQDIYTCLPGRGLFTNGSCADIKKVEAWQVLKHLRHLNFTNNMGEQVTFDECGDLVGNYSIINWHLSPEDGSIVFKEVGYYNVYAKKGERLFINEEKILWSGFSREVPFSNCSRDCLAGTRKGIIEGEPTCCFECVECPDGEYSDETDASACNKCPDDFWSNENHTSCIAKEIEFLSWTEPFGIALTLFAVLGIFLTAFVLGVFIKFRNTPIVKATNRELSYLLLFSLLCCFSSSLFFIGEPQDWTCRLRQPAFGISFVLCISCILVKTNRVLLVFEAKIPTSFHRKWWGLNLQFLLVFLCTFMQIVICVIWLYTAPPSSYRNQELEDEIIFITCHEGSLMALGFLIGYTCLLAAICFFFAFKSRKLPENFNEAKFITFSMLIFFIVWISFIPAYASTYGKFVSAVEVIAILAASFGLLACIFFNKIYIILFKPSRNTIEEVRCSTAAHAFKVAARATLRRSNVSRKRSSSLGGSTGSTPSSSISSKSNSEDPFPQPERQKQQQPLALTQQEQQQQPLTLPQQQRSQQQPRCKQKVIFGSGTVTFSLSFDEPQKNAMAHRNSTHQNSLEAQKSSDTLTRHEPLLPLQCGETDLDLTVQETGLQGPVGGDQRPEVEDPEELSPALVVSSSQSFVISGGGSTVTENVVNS
Experiment: Calcium Receptor Inhibitor Assay
Type: cell-based
Protocol: This example illustrates the use of the Calcium Receptor Inhibitor Assay. […] Res. 10 Suppl. […] Intracellular Ca^2+ was measured using fluo-3, a fluorescent calcium indicator.
The procedure was as follows:
1. Cells were maintained in T-150 flasks in selection media (DMEM supplemented with 10% fetal bovine serum and 200 μg/mL hygromycin B), under 5% CO2:95% air at 37° C. and were grown up to 90% confluency.
2. The medium was decanted and the cell monolayer was washed twice with phosphate-buffered saline (PBS) kept at 37° C. After the second wash, 6 mL of 0.02% EDTA in PBS was added and incubated for 4 minutes at 37° C. Following the incubation, cells were dispersed by gentle agitation.
3. Cells from 2 or 3 flasks were pooled and pelleted (100×g). The cellular pellet was resuspended in […] of SPF-PCB+ and pelleted again by centrifugation. This washing was done twice.
SPF-PCB was made up and stored at 4° C. On the day of use, SPF-PCB was supplemented with 1 mg/mL of D-glucose and 1 mM CaCl2 and then split into two fractions. To one fraction, bovine serum albumin (BSA; fraction V, ICN) was added at 5 mg/mL (SPF-PCB+). This buffer was used for washing, loading and maintaining the cells. The BSA-free fraction was used for diluting the cells in the cuvette for measurements of fluorescence.
5. Following the incubation period, the cells were pelleted by centrifugation. The resulting pellet was washed with SPF-PCB+. After this washing, cells were resuspended in SPF-PCB+ at a density of 1–2×10^6 cells/mL.
6. For recording fluorescent signals, 300 μL of cell suspension were diluted in 1.2 mL of SPF buffer containing 1 mM CaCl2 and 1 mg/mL of D-glucose. Measurements of fluorescence were performed at 37° C. with constant stirring using a spectrofluorimeter. […] To calibrate fluorescence signals, digitonin (5 mg/mL in ethanol) was added to obtain Fmax, and the apparent Fmin was determined by adding Tris-EGTA (2.5 M Tris-Base, 0.3 M EGTA).
7. To determine the potential calcilytic activity of test compounds, cells were incubated with test compound (or vehicle as a control) for 90 seconds before increasing the concentration of extracellular Ca^2+ from 1 to 2 mM. Calcilytic compounds were detected by their ability to block, in a concentration-dependent manner, increases in the concentration of intracellular Ca^2+ elicited by extracellular Ca^2+.

[1] = HEK 293 4.0–7 cells stably expressing the human calcium receptor, fluo-3, read-out: IC50 for blocking increases of intracellular Ca2+ elicited by extracellular Ca2+

Q: For `COc1ccc(CC(C)(C)NCCc2ccccc2)cc1` [Compound 84, N-(2-Phenylethyl)-1,1-dimethyl-2-(4-methoxyphenyl)ethylamine], which IC50 is on record?
A: > 50 µM

Q: With `COc1ccc(CCC(C)(C)NCC(O)COc2ccccc2)cc1` (centres unmarked) [Compound 90, N-(2-Hydroxy-3-phenoxypropyl)-1,1-dimethyl-3-(4-methoxyphenyl)propylamine Hydrochloride] as the compound, how does the IC50 [1] read?
A: < 50 µM

Q: With `CC(C)(Cc1cccc2ccccc12)NCC(O)COc1ccccc1` (centres unmarked) [Compound 92, N-(2-hydroxy-3-phenoxypropyl)-1,1-dimethyl-2-(1-naphthyl)ethylamine] as the compound, how does the IC50 [1] read?
A: > 50 µM

Q: For `COc1ccc(CC(C)(C)NCC(O)COC2CCCCC2)cc1` (centres unmarked) [Compound 93, N-(2-hydroxy-3-cyclohexoxypropyl)-1,1-dimethyl-2-(4-methoxyphenyl)ethylamine], which IC50 is on record?
A: < 10 µM

Q: How did the IC50 [1] turn out when `COc1ccc(CC(C)(C)NCC(O)COC23CC4CC(CC(C4)C2)C3)cc1` (centres unmarked) [Compound 96, N-[2-Hydroxy-3-(1-adamantanoxy)propyl]-1-1,1-dimethyl-2-(4-methoxyphenyl)ethyl amine] was run?
A: < 1 µM

Q: For `Cc1ccc(CC(C)(C)NCC(O)COc2ccccc2)cc1` (centres unmarked) [Compound 98, N-(2-Hydroxy-3-phenoxypropyl)-1,1-dimethyl-2-(4-methylphenyl)ethylamine Hydrochloride], which IC50 [1] is on record?
A: < 10 µM

Q: `COc1cccc(CC(C)(C)NCC(O)COc2ccccc2)c1` (centres unmarked) [Compound 99, N-(2-Hydroxy-3-phenoxypropyl)-1,1-dimethyl-2-(3-methoxyphenyl)ethylamine Hydrochloride] was tested. Which IC50 [1] did it give?
A: > 50 µM

Q: Which IC50 [1] does the source give for `COc1ccc(CC(C)(C)NCC(C)(O)COc2ccccc2)cc1` (centres unmarked) [Compound 101, N-(2-Hydroxy-2-methyl-3-phenoxypropyl)-1,1-dimethyl-2-(4-methoxyphenyl)ethylamine Hydrochloride] here?
A: < 50 µM

Q: For `CCOc1ccc(CC(C)(C)NCC(O)COc2ccccc2)cc1` (centres unmarked) [Compound 102, N-(2-hydroxy-3-phenoxypropyl)-1,1-dimethyl-2-(4-ethoxyphenyl)ethylamine], which IC50 [1] is on record?
A: > 50 µM

Q: For `CC(C)(Cc1ccc(Cl)cc1)NCC(O)COc1ccccc1` (centres unmarked) [Compound 103, N-(2-Hydroxy-3-phenoxypropyl)-1,1-dimethyl-2-(4-chlorophenyl)ethylamine Hydrochloride], which IC50 [1] is on record?
A: < 10 µM

Q: Which IC50 [1] does the source give for `CC(C)(Cc1cccc(Cl)c1)NCC(O)COc1ccccc1` (centres unmarked) [Compound 104, N-(2-Hydroxy-3-phenoxypropyl)-1,1-dimethyl-2-(3-chlorophenyl)ethylamine Hydrochloride] here?
A: < 10 µM

Q: Which IC50 [1] does the source give for `COc1ccc(CC(C)(C)NC[C@@H](O)COc2cccc(Cl)c2C#N)cc1` [Compound 109, (R)—N-[2-Hydroxy-3-(3-chloro-2-cyanophenoxy)propyl]-1,1-dimethyl-2-(4-methoxyphenyl)-ethylamine Hydrochloride] here?
A: < 1 µM

Q: `CCc1ccc(CC(C)(C)NCC(O)COc2ccccc2)cc1` (centres unmarked) [Compound 110, N-(2-Hydroxy-3-phenoxypropyl)-1,1-dimethyl-2-(4-ethylphenyl)ethylamine Hydrochloride] was tested. Which IC50 [1] did it give?
A: < 10 µM

Q: Which IC50 [1] does the source give for `CC(C)(Cc1ccc(OC(F)(F)F)cc1)NCC(O)COc1ccccc1` (centres unmarked) [Compound 111, N-(2-Hydroxy-3-phenoxypropyl)-1,1-dimethyl-2-(4-trifluoromethoxyphenyl)ethylamine Hydrochloride] here?
A: < 10 µM

Q: `CC(C)c1ccc(CC(C)(C)NCC(O)COc2ccccc2)cc1` (centres unmarked) [Compound 112, N-(2-Hydroxy-3-phenoxypropyl)-1,1-dimethyl-2-(4-isopropylphenyl)ethylamine Hydrochloride] was tested. Which IC50 [1] did it give?
A: < 1 µM

Q: With `CCC(C)(Cc1ccc(OC)cc1)NCC(O)COc1ccccc1` (centres unmarked) [Compound 113, N-(2-Hydroxy-3-phenoxypropyl)-1-ethyl-1-methyl-2-(4-methoxyphenyl)ethylamine Hydrochloride] as the compound, how does the IC50 [1] read?
A: < 1 µM

Q: Which IC50 [1] does the source give for `CCC(CC)(Cc1ccc(OC)cc1)NCC(O)COc1ccccc1` (centres unmarked) [Compound 114, N-(2-Hydroxy-3-phenoxypropyl)-1,1-diethyl-2-(4-methoxyphenyl)ethylamine Hydrochloride] here?
A: < 10 µM
